# What was measured:
# Type in all cases: in vivo
# [1] = test system: patients where involvement with glutamate is suspected; experiment: Low dose (Trojan horse) treatment of patients where involvement with glutamate is suspected
# Excerpt: For example one of the stimulating systems in the body is the glutamate receptor mechanism. Some of the biggest challenges in neuropsychiatric pharmacology is breaking through the defenses of these “buffered” systems like NMDA. The “Trojan horses” can enter into the receptor mechanism and change it without disturbing the situation. This explains why certain diseases that are not well treated, such as autism, have responded to any number of treatments but none of them consistently. If the balance between more autistic and less autistic behavior is very much leaning toward improved socialization, then perhaps any “Trojan horse” that can slip past the “fortress” of the glutamate receptors that are refusing to participate may add enough positive to affect socialization and the child has a miraculous response to the minute dose of medicine.
# Examples: low dose Abilify and mecamylamine have been successful in treating patients where involvement with glutamate is suspected. Indeed we have few disorders that are known to be caused by glutamate despite the large role it plays in brain function. One medication that has been used for several years is Mematine, which is supposed to help memory in patients with Alzheimer's. […] Another example is the destructive flashbacks seen when individuals have taken PCP. […]
# [2] = test system: subject with dissociation disorder; experiment: Example protocol for memantine (Namenda) in dissociation disorder: sample chart for an example patient
# Procedure: Example Protocol for Memantine (Namenda®)
# Day 1: Give Namenda ½ of a 5 mg tablet in the morning.
# Day 2: If the patient has absolutely no positive change in their behavior in the form of genuine social interactions, give another ½ of a 5 mg tablet in the morning.
# Day 3: No matter what happened, give no Namenda on Day 3.
# If there has been no improvement, give ½ of a 5 mg tablet in the morning.
# Day 5: If there has been no improvement since Day 1, give ½ of a 5 mg tablet in the morning.
# Day 6: No matter what happens, give no Namenda on Day 6.
# Day 7: If there has been only minimal improvement after a total of 7.5 mg of Namenda, give ½ of a 5 mg Namenda. If there has been no improvement after a total of 10 mg of Namenda, give ½ of a 5 mg Namenda. Otherwise, give no Namenda on Day 7. […]
# Here is a sample chart for an example patient following the steps and a plan for week 2. […]
# Side effects of Namenda: how to know if the dose is too high. The negative social effects of Namenda can be described as disinhibitory. This mean that the person's normal understanding of personal boundaries with others is lost—i.e., the patient loses their inhibition like someone who is intoxicated. They may be excessively aggressive both verbally and physically about incidental matters. They may become intrusive into other people's business. They may become flirtatious or aggressive. If a person has any of these behaviors it most likely means that the Namenda dose is getting too high.
# [3] = Effect of memantine on socialization in people; details: in many people
# [4] = test system: seizure patient with rage behavior; experiment: Case number 2: seizure patient with rage behavior
# Procedure: The patient had been on a large dose thioridazine (400 mg/day).
# One drives fear and involves beta-receptors. The other drives aggression and involves alpha-receptors.
# [5] = test system: schizophrenic acute psychosis patients and patients having autism spectrum social disorder; experiment: Mecamylamine in patients with schizophrenic acute psychosis or autism spectrum social disorder: verbal communication
# Procedure: In some embodiments, the effective dose of mecamylamine is 0.025 mg/kg to about 0.125 mg/kg twice a week. In some cases, the effective dose of mecamylamine in schizophrenic acute psychosis patients and patients having autism spectrum social disorder results in improved verbal communication from 50 to 150%. In some embodiments, one dose may have an effect of improved verbal communication up to two months.
# [6] = Day 1, dose given ½ of a 5 mg Namenda
# [7] = Day 2, dose given ½ of a 5 mg Namenda
# [8] = Day 5, dose given ½ of a 5 mg Namenda
smiles,measurement,setting,value
"O=C1CCc2ccc(OCCCCN3CCN(c4cccc(Cl)c4Cl)CC3)cc2N1 [Abilify, aripiprazole]",success of treatment,[1],successful
"CC12CC3CC(C)(C1)CC(N)(C3)C2 [Namenda, memantine]",Improvement,[2]; [6],None
same,Side Effects or Disinhibition,[2]; [6],None
same,Improvement,[2]; [7],None
same,Side Effects or Disinhibition,[2]; [7],None
same,Degree or Detail of Improvement,"[2]; Day 3, no dose given",Spoke normally
same,Improvement,"[2]; Day 3, no dose given",Slight
same,Side Effects or Disinhibition,"[2]; Day 3, no dose given",None
same,Degree or Detail of Improvement,"[2]; Day 4, no dose given",Same as Day 3
same,Improvement,"[2]; Day 4, no dose given",Slight
same,Side Effects or Disinhibition,"[2]; Day 4, no dose given",None
same,Degree or Detail of Improvement,[2]; [8],Ate their meal
same,Improvement,[2]; [8],Good
same,Side Effects or Disinhibition,[2]; [8],None
same,Degree or Detail of Improvement,"[2]; Day 6, no dose given",Same as Day 4
same,Improvement,"[2]; Day 6, no dose given",Continues Good
same,Side Effects or Disinhibition,"[2]; Day 6, no dose given",None
same,Improvement,"[2]; Day 7, no dose given",Same
same,Side Effects or Disinhibition,"[2]; Day 7, no dose given",None
same,effect on socialization,[3],increase their socialization
same,effect on socialization,[3]; listed as Mematine,increasing their socialization
COc1cc2nc(N3CCN(C(=O)C4COc5ccccc5O4)CC3)nc(N)c2cc1OC (stereo not drawn) [doxazosin],effect on severe psychotic symptoms,"[4]; doxazosin added, patient on propranolol and haloperidol",stopped the severe psychotic symptoms
CNC1(C)C2CCC(C2)C1(C)C (stereo not drawn) [mecamylamine],duration of effect of improved verbal communication,[5]; one dose,up to two
same,duration of effect of improved verbal communication,[5]; one weekly protocol,up to 4 months
same,success of treatment,[1],successful
CC(C)NCC(O)COc1cccc2ccccc12 (stereo not drawn) [propranolol],character of rage when it occurred,"[4]; on propranolol, compared with before beta blocker treatment",wilder and more psychotic
same,frequency of rages,[4]; on the beta blocker propranolol,less frequent rages
